ChEMBL document CHEMBL5154929, “Optimization of the Natural Product Calothrixin A to Discover Novel Dual Topoisomerase I and II Inhibitors with Improved Anticancer Activity” (J Med Chem, 2022)
Activity calls are given as the source filed them. No cut-off for these calls is given here.

Columns and labels:
A-375 [1] = assay: Antimigratory activity in human A-375 cells assessed as reduction in cell migration incubated for 24 hrs by wound healing assay; format: functional, cell-based; conditions: dose 10-40 nM, DDE = dose-dependent effect
[2] = Half life in Kunming mouse plasma at 10 mg/kg, iv administered as single dose measured after 5 to 360 mins by HPLC analysis; format: ADME, organism-based; conditions: time 5-360 min
[3] = Cmax in Kunming mouse plasma at 10 mg/kg, iv administered as single dose measured after 5 to 360 mins by HPLC analysis; format: ADME, organism-based; design: dose 10 mg/kg, time upper 360 min, time lower 5 min, route iv
[4] = Microsomal stability in mouse liver microsomes assessed as clearance measured at 2 ug/ml upto 60 mins in presence of NADPH generating system and UGT incubation system by phase II metabolic stability kit method; format: ADME, Microsome; conditions: dose 2 µg/ml, read-out: CLH
SH-SY5Y = assay: Cytotoxicity against human SH-SY5Y cells expressing low level of topoisomerase I/II measured after 72 hrs by MTT assay; format: functional, cell-based
MDA-MB-231 = assay: Cytotoxicity against human MDA-MB-231 cells expressing high level of topoisomerase I/II measured after 72 hrs by MTT assay; format: functional, cell-based; conditions: MDA-MB-231, 72 h
HCT-116 [5] = assay: Cytotoxicity against human HCT-116 cells expressing high level of topoisomerase I/II measured after 72 hrs by MTT assay; format: functional, cell-based; conditions: HCT-116, 72 h
MCF7 = assay: Cytotoxicity against human MCF7 cells expressing high level of topoisomerase I/II measured after 72 hrs by MTT assay; format: functional, cell-based; conditions: MCF7, 72 h
A-375 [6] = assay: Cytotoxicity against human A-375 cells expressing high level of topoisomerase I/II measured after 72 hrs by MTT assay; format: functional, cell-based; conditions: A-375, 72 h
A549 = assay: Cytotoxicity against human A549 cells expressing high level of topoisomerase I/II measured after 72 hrs by MTT assay; format: functional, cell-based; conditions: A549, 72 h
[7] = Cytotoxicity against human HEK293T cells measured after 72 hrs by MTT assay; format: toxicity, cell-based, HEK-293T
[8] = Aqueous solubility of the compound in saline equilibrating for 24 hrs by HPLC analysis; format: physicochemical
HCT-116 [9] = assay: Antiproliferative activity against doxorubicin resistant human HCT-116 cells measured after 72 hrs by MTT assay; format: functional, cell-based; conditions: HCT-116, 72 h
HCT-116 [10] = assay: Antiproliferative activity against doxorubicin sensitive human HCT-116 cells measured after 72 hrs by MTT assay; format: functional, cell-based; conditions: HCT-116, 72 h
[11] = Selectivity index, ratio of IC50 for human HEK293T cells to IC50 for human A-375 cells; format: toxicity; conditions: HEK293T cells and A-375 cells, read-out: Ratio IC50
[12] = In vivo acute toxicity in Balb/C mouse assessed as effect on body weight at 50 mg/kg, iv administered once per 2 days for 7 days measured every other day; format: organism-based; conditions: 168 h, time 7 day
[13] = In vivo acute toxicity in Balb/C mouse assessed as pathological damage in liver at 50 mg/kg, iv administered once per 2 days for 7 days measured 24 hrs after last dose by H and E staining method; format: organism-based; conditions: 168 h, time 7 day
[14] = In vivo acute toxicity in Balb/C mouse assessed as pathological damage in kidney at 50 mg/kg, iv administered once per 2 days for 7 days measured 24 hrs after last dose by H and E staining method; format: organism-based; conditions: 168 h, time 7 day
HCT-116 [15] = assay: Inhibition of colony formation in human HCT-116 cells at 20 to 40 nM incubated for 48 hrs by crystal violet staining method; format: functional, cell-based; conditions: dose 20-40 nM
A-375 [16] = assay: Antimigratory activity in human A-375 cells assessed as reduction in cell migration at 10 to 40 nM incubated for 24 hrs by crystal violet staining method; format: functional, cell-based; conditions: dose 10-40 nM
A-375 [17] = assay: Induction of cell cycle arrest in human A-375 cells assessed as accumulation of cells at G1 phase at 80 nM incubated for 24 hrs by PI based flow cytometric analysis (RVB = 52.94%); format: functional
A-375 [18] = assay: Induction of cell cycle arrest in human A-375 cells assessed as accumulation of cells at S phase at 80 nM incubated for 24 hrs by PI based flow cytometric analysis (RVB = 26.73%); format: functional
A-375 [19] = assay: Induction of cell cycle arrest in human A-375 cells assessed as accumulation of cells at G2 phase at 80 nM incubated for 24 hrs by PI based flow cytometric analysis (RVB = 20.34%); format: functional
A-375 [20] = assay: Induction of cell cycle arrest in human A-375 cells assessed as accumulation of cells at G1 phase at 20 nM incubated for 24 hrs by PI based flow cytometric analysis (RVB = 52.94%); format: functional
A-375 [21] = assay: Induction of cell cycle arrest in human A-375 cells assessed as accumulation of cells at S phase at 20 nM incubated for 24 hrs by PI based flow cytometric analysis (RVB = 26.73%); format: functional
A-375 [22] = assay: Induction of cell cycle arrest in human A-375 cells assessed as accumulation of cells at G2 phase at 20 nM incubated for 24 hrs by PI based flow cytometric analysis (RVB = 20.34%); format: functional
A-375 [23] = assay: Induction of cell cycle arrest in human A-375 cells assessed as accumulation of cells at G1 phase at 40 nM incubated for 24 hrs by PI based flow cytometric analysis (RVB = 52.94%); format: functional
A-375 [24] = assay: Induction of cell cycle arrest in human A-375 cells assessed as accumulation of cells at G2 phase at 40 nM incubated for 24 hrs by PI based flow cytometric analysis (RVB = 20.34%); format: functional
A-375 [25] = assay: Induction of apoptosis in human A-375 cells at 80 nM measured after 24 hrs by Annexin V-FITC and DAPI staining based flow cytometric analysis; format: functional
A-375 [26] = assay: Induction of apoptosis in human A-375 cells at 120 nM measured after 24 hrs by Annexin V-FITC and DAPI staining based flow cytometric analysis; format: functional
[27] = Clearance in Kunming mouse plasma at 10 mg/kg, iv administered as single dose measured after 5 to 360 mins by HPLC analysis; format: ADME, organism-based; conditions: time 5-360 min
[28] = Toxicity in BALB/c nude mouse xenografted with human A-375 cells assessed as body weight loss treated after 7 days of tumor implantation on right flank subcutaneously at 10 to 20 mg/kg, iv administered once per 2 days for 14 days measured once every two days; format: organism-based; conditions: in vivo, 336 h, dose 10-20 mg/kg, time 14 day
A-375 [29] = assay: (§1) In vivo induction of apoptosis in human A-375 cells xenografted in BALB/c nude mouse treated after 7 days of tumor implantation on right flank subcutaneously at 10 to 20 mg/kg, iv administered once per 2 days for 14 days by measuring TUNEL positive cells under a light microscope; format: functional, organism-based; conditions: dose 10-20 mg/kg, time 14.0 day
A-375 [30] = assay: as §1, with “mouse assessed as increase in C-caspase-3 level” for “mouse”; format: functional, organism-based; conditions: dose 10-20 mg/kg, time 14.0 day
Calf thymus DNA [31] = assay: Binding affinity to calf thymus DNA assessed as intercalation by measuring hypochromic shift at 389 nm by […]; format: nucleic-acid assay; conditions: Bos taurus
Calf thymus DNA [32] = assay: Binding affinity to calf thymus DNA assessed as intercalation by measuring hypochromic shift at 432 nm by […]; format: nucleic-acid assay; conditions: Bos taurus

O=C1c2c[n+]([O-])c3ccccc3c2C(=O)c2c1c1ccccc1n2Cc1cn([C@@H]2C[C@H](O)[C@@H](CO)O2)nn1
Activity (A-375 [1]): Dde
half-life [2]: 2.52 h
Cmax [3]: 27000 ng/mL
microsomal CLint at 2 ug/ml [4]: 35 µL/min/mg
IC50 (SH-SY5Y): 150 nM
IC50 (MDA-MB-231): 130 nM
IC50 (HCT-116 [5]): 50 nM
IC50 (MCF7): 110 nM
IC50 (A-375 [6]): 20 nM
IC50 (A549): 120 nM
IC50 at 72 h [7]: 820 nM
solubility at 24 h [8]: > 5000 µg/mL
IC50 (HCT-116 [9]): 70 nM
IC50 (HCT-116 [10]): 50 nM
selectivity ratio [11]: 40
Activity [12]: Non-Toxic
Activity [13]: Non-Toxic
Activity [14]: Non-Toxic
inhibition (HCT-116 [15]): Active
Activity (A-375 [16]): Active
Activity (A-375 [17]): 34.99%
Activity (A-375 [18]): 58.13%
Activity (A-375 [19]): 6.88%
Activity (A-375 [20]): 32.45%
Activity (A-375 [21]): 38.36%
Activity (A-375 [22]): 29.19%
Activity (A-375 [23]): 28.94%
Activity (A-375 [24]): 27.87%
Activity (A-375 [25]): 36.21%
Activity (A-375 [26]): 55.94%
clearance [27]: 1 mL/min/kg
Activity [28]: Non-Toxic
Activity (A-375 [29]): Active
Activity (A-375 [30]): Active
Activity (Calf thymus DNA [31]): 29%
Activity (Calf thymus DNA [32]): 32%
